From patent publication US8377913B2, “Vitamin D receptor activators and methods of making” (AbbVie Inc., priority 2007, dated 2013)

Biological target: T1, recombinant full-length human Vitamin D nuclear receptor (Homo sapiens, UniProt P11473)
T1 sequence (P11473 1-427): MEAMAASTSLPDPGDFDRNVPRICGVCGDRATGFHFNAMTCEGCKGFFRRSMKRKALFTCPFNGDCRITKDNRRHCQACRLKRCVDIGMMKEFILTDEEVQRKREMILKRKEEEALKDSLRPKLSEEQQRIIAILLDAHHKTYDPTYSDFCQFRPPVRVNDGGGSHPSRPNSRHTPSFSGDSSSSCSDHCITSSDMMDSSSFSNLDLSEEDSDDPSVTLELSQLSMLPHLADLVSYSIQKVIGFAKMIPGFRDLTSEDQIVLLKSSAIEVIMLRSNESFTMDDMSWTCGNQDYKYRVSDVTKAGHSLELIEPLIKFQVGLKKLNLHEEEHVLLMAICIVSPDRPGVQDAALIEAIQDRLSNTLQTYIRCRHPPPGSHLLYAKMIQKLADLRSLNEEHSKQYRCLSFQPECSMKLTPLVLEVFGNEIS
Assay: biochemical
Description: In vitro binding of selected compounds according to the invention to VDR was assessed using the following procedure. […] Each test compound was then serially diluted in binding buffer to concentrations appropriate for the assay, as one skilled in the art can determine.
Final assay volume was 100 uL. The filled plate was incubated overnight at 4° C. with gentle shaking. After 18 hours of incubation, 20 uL of wheat germ agglutinin-coated yttrium silicate scintillation proximity assay (SPA) beads (commercially available from Amersham Biosciences, Piscataway, N.J.; Part # RPNQ0270) resuspended in binding buffer was added to each well (200 ug/well) and the plate was incubated at room temperature for 2 hours with gentle shaking.

`C=C1[C@H](O)CC(=C/C=C2\CCC[C@]3(C)[C@@H]([C@H](C)COC(=O)C(C)(C)C)CC[C@@H]23)C[C@H]1O` [Example 1, (2S)-2-[(1R,3R,7E, 17β)-1,3-dihydroxy-2-methylene-9,10-secoestra-5,7-dien-17-yl]propyl pivalate] was tested, and the IC50 was 496 nM.
